For data set [1], the target named is POP (prolyloligopeptidase) (Homo sapiens, UniProt P48147). In words: POP inhibition assay. Type of data set: biochemical. The settings on record: bounds marked f: highest tested concentration due to low solubility in buffer; read-out: IC50, POP ± SEM. How it is done:
The previously applied procedure was used. Detailed description of the assay can be found in Supplementary Materials.
POP (EC 3.4.21.26) was dissolved in phosphate-buffered saline (PBS; 0.01 M Na/K phosphate buffer, […]
The assay was performed in standard polystyrene 96-well microplates with a flat and clear bottom.
Stock solutions of tested compounds were prepared in DMSO (10 mM). Dilutions (10−3 to 10−7 M) were prepared from the stock solution with deionized H2O; the control was performed with the same DMSO concentration. POP substrate, (Z)-Gly-Pro-p-nitroanilide, was dissolved in 50% 1,4-dioxane (5 mM). For each reaction, PBS (170 μL), tested compound (5 μL), and POP (5 μL) were incubated for 5 min at 37 °C. Then, substrate (20 μL) was added, and the microplate was incubated for 30 min at 37 °C. The formation of p-nitroanilide, directly proportional to the POP activity, was measured […]
Synergy 2, BioTek Instruments, Winooski, VT). The inhibition potency of tested compounds was calculated by nonlinear regression analysis and was expressed as an IC50 value (concentration of inhibitor which causes 50% POP inhibition). […]

A short description of a further data set: Cytotoxicity, MTT assay. Type of data set: cell-based. The conditions noted are these: human, SH-SY5Y neuroblastoma cells, 24 h incubation. The procedure: The cytotoxicity profile was assessed for compound 6 using the human neuroblastoma SH-SY5Y cell line and MTT assay. At a concentration of 10 µM, compound 6 was completely devoid of cytotoxicity, with viability reaching 95.1 ± 2.6%.
The neuroblastoma cell line SH-SY5Y (Sigma-Aldrich, St. Louis, MO, USA) was used to evaluate cytotoxicity of the tested compounds. […]
The MTT (3-(4,5-dimethylthiazol-2-yl)-2,5-diphenyl-tetraziolium bromide (Sigma–Aldrich) reduction assay was used for measurement of the compounds’ cytotoxicity, according to Mosmann. MTT is a water-soluble tetrazolium salt that is converted to purple formazan by succinate dehydrogenase in mitochondria of viable cells. Cell viability was detected after 24-h incubation with the tested substances. For the assay, SH-SY5Y cells were seeded into 96-well plates in 100 µL volume and at a density of 20 × 10^3. Cells were allowed to attach overnight before the treatment. The stock solutions of tested compounds were prepared in dimethylsulfoxide (DMSO, Sigma-Aldrich), which were serially diluted in DMEM and added to the cells in a 96-well culture plate. […] The optical density of each well was measured using a Spark® multimode microplate reader (Tecan Group Ltd., Männedorf, Switzerland) at 570 nm. The cell viability was expressed as a percentage of the untreated control. […]

Another data set addresses T1, MAO-A (Homo sapiens, UniProt P21397).
T1 construct: purchased Merck, Germany
T1 sequence (P21397 1-527): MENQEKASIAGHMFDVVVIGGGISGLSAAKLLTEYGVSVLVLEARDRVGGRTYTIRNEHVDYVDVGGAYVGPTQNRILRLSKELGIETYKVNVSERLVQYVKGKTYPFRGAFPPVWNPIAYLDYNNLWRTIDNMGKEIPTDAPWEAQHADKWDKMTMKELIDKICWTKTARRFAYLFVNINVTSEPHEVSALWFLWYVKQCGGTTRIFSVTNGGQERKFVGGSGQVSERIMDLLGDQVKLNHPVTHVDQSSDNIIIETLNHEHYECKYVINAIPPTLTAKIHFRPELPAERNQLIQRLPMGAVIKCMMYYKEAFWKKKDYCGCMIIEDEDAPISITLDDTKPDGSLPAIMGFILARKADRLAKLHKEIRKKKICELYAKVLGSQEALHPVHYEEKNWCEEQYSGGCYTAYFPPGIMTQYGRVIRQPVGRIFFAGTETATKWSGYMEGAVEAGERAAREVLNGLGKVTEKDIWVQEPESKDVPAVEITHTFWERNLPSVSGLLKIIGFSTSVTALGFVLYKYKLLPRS
The data set is described as follows: MAO-A inhibition assay. Type of data set: biochemical. How it is done: Since monoamine oxidase (MAO; EC 1.4.3.4) inhibitors are considered as neuroprotective agents, compound 6 was screened at two concentrations (1 and 10 µM) for its inhibition potential against both isoforms of human MAOs. […]; MAO inhibition assay was performed as previously described. Supplementary Materials provides details of this assay. […]
The reaction mixture contains 2.5mg/mL MAO -A or 6.25mg/mLMAO-B enzyme (Merck, Germany) and inhibitor in final concentrations of […] in 50 mM potassiumphosphate buffer with 20% (v/v) glycerol (pH 7.5). […] The sample was then centrifuged (16.500 g) for10 min.The deamination product of kynuramine formed during the enzymatic reaction 4-hydroxyquinoline (4-HQ) was determined by UHPLC-MS on a Zorbax RRHD Eclipse plus C18 column (2.1 mm x 50 mm, […]) (Agilent Technologies, USA), by using a 6470 Series Triple Quadrupole mass spectrometer (Agilent Technologies, USA) as detector with electrospray ionisation – positive ion mode. […]
0.1% formic acid in water; (B) 0.1% formic acid in acetonitrile. IC 50of individual compounds were determined by nonlinear regression usingGraphPad Prism 8.0 (GraphPad Software, USA).

Each structure is given as a SMILES string.

The IC50 is the point on the concentration scale where inhibition reaches its midpoint. The viability is a read-out of living cells in per cent, often relative to untreated cells.

POP (prolyloligopeptidase), sequence (P48147 whole entry): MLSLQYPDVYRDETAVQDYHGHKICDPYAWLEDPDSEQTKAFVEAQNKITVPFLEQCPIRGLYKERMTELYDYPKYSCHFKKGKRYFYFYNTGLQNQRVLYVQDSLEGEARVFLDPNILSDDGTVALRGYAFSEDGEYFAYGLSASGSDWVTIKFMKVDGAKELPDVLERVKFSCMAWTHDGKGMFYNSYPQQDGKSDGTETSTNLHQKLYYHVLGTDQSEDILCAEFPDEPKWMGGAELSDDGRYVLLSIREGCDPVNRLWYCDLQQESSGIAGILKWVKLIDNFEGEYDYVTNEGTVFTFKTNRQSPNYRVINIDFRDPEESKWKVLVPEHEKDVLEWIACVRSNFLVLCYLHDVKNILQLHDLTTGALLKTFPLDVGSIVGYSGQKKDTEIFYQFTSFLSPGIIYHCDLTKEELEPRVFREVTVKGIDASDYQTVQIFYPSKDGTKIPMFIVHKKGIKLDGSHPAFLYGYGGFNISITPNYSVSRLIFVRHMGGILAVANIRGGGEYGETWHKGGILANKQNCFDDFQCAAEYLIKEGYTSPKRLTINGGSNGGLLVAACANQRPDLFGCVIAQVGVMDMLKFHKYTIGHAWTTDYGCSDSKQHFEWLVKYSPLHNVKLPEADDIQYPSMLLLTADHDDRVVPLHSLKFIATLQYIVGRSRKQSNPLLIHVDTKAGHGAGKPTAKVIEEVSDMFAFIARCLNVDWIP

As for `C=CCOc1ccc(CCN(CC=C)Cc2ccc(OC)c(OCc3ccccc3)c2)cc1` [Compound 6, N-allyl-N-(3-benzyloxy-4-methoxybenzyl)-2-(4-allyloxyphenyl)ethan-1-amine], the IC50 is more than 79 µM in data set [1] and more than 10 µM against MAO-A. The viability at 24 h, 10 µM in the data set “Cytotoxicity, MTT assay” amounted to 95.1 ± 2.6%. In addition, on MAO-A (1 and 10 µM), the “residual activity of MAO-A” value is on record as “higher than 68%”.
